How the values were obtained:
Experiment in all cases: Test B pre-/postemergence plant response
Type in all cases: in vivo
corn (Zea mays) = conditions: for Plant response rating, Corn: Postemergence
How it was run: (§1)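 Visually scored on a 0 to 100 scale after 13 to 15 days in greenhouse versus controls. Treatments were preemergence on seeded loam/sand soil and postemergence on 1- to 4-leaf plants.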

[1] = test system: large crabgrass (Digitaria sanguinalis); conditions: for Plant response rating, Crabgrass, Large: Postemergence
How it was run: as §1

[2] = test system: yellow nutsedge (Cyperus esculentus); conditions: for Plant response rating, Nutsedge, Yellow: Postemergence
How it was run: as §1

soybean (Glycine max) = conditions: for Plant response rating, Soybean: Postemergence
How it was run: as §1

[3] = test system: giant foxtail (Setaria faberii); conditions: for Plant response rating, Foxtail, Giant: Postemergence
How it was run: as §1

[4] = test system: woolly cupgrass (Eriochloa villosa); conditions: for Plant response rating, Cupgrass, Woolly: Postemergence
How it was run: as §1

kochia (Kochia scoparia) = conditions: for Plant response rating, Kochia: Postemergence
How it was run: as §1

[5] = test system: blackgrass (Alopecurus myosuroides); conditions: for Plant response rating, Blackgrass: Postemergence
How it was run: as §1

[6] = test system: johnsongrass (Sorghum halepense); conditions: for Plant response rating, Johnsongrass: Postemergence
How it was run: as §1

[7] = test system: morningglory (Ipomoea coccinea); conditions: for Plant response rating, Morningglory: Postemergence
How it was run: as §1

[8] = test system: cocklebur (Xanthium strumarium); conditions: for Plant response rating, Cocklebur: Postemergence
How it was run: as §1

[9] = test system: velvetleaf (Abutilon theophrasti); conditions: for Plant response rating, Velvetleaf: Postemergence
How it was run: as §1

[10] = test system: goosegrass (Eleusine indica); conditions: for Plant response rating, Goosegrass: Postemergence
How it was run: as §1

[11] = test system: Surinam grass (Brachiaria decumbens); conditions: for Plant response rating, Surinam Grass: Postemergence
How it was run: as §1

[12] = test system: downy bromegrass (Bromus tectorum); conditions: for Plant response rating, Bromegrass, Downy: Postemergence
How it was run: as §1

wild oat (Avena fatua) = conditions: for Plant response rating, Oat, Wild: Postemergence
How it was run: as §1

[13] = test system: green foxtail (Setaria viridis); conditions: for Plant response rating, Foxtail, Green: Postemergence
How it was run: as §1

[14] = 62 g ai/ha, postemergence, 0 is no effect, 100 is complete control, 13 to 15 days
[15] = 31 g ai/ha, 0 to 100 scale (0 no effect, 100 complete control)
[16] = 125 g ai/ha, scale 0 to 100 (0 no effect, 100 complete control)

Structure (SMILES): CCn1c(-c2cc(F)cc(F)c2)ncc(C(=O)C2=C(O)CCCC2=O)c1=O [Compound 122]
- Plant response rating, Corn (corn (Zea mays); 16 g ai/ha, 0 to 100 scale): 0
- Corn plant response rating (0 to 100 scale) (corn (Zea mays); [14]): 15
- Plant response rating, Corn (corn (Zea mays); [15]): 0
- Plant response rating, Corn (corn (Zea mays); [16]): 25
- Plant response rating, Crabgrass, Large ([1]; 16 g ai/ha, 0 to 100 scale): 65
- Crabgrass, Large plant response rating (0 to 100 scale) [1, 14]: 75
- Plant response rating, Crabgrass, Large [1, 15]: 75
- Plant response rating, Crabgrass, Large [1, 16]: 85
- Plant response rating, Nutsedge, Yellow ([2]; 16 g ai/ha, 0 to 100 scale): 35
- Nutsedge, Yellow plant response rating (0 to 100 scale) [2, 14]: 70
- Plant response rating, Nutsedge, Yellow [2, 15]: 55
- Plant response rating, Nutsedge, Yellow [2, 16]: 75
- Plant response rating, Soybean (soybean (Glycine max); 16 g ai/ha, 0 to 100 scale): 20
- Soybean plant response rating (0 to 100 scale) (soybean (Glycine max); [14]): 75
- Plant response rating, Soybean (soybean (Glycine max); [15]): 45
- Plant response rating, Soybean (soybean (Glycine max); [16]): 80
- Plant response rating, Foxtail, Giant ([3]; 16 g ai/ha, 0 to 100 scale): 65
- Foxtail, Giant plant response rating (0 to 100 scale) [3, 14]: 75
- Plant response rating, Foxtail, Giant [3, 15]: 70
- Plant response rating, Foxtail, Giant [3, 16]: 80
- Plant response rating, Cupgrass, Woolly ([4]; 16 g ai/ha, 0 to 100 scale): 65
- Cupgrass, Woolly plant response rating (0 to 100 scale) [4, 14]: 70
- Plant response rating, Cupgrass, Woolly [4, 15]: 65
- Plant response rating, Cupgrass, Woolly [4, 16]: 75
- Plant response rating, Kochia (kochia (Kochia scoparia); 16 g ai/ha, 0 to 100 scale): 0
- Kochia plant response rating (0 to 100 scale) (kochia (Kochia scoparia); [14]): 0
- Plant response rating, Kochia (kochia (Kochia scoparia); [15]): 0
- Plant response rating, Kochia (kochia (Kochia scoparia); [16]): 45
- Plant response rating, Blackgrass ([5]; 16 g ai/ha, 0 to 100 scale): 0
- Blackgrass plant response rating (0 to 100 scale) [5, 14]: 5
- Plant response rating, Blackgrass [5, 15]: 5
- Plant response rating, Blackgrass [5, 16]: 15
- Plant response rating, Johnsongrass ([6]; 16 g ai/ha, 0 to 100 scale): 20
- Johnsongrass plant response rating (0 to 100 scale) [6, 14]: 65
- Plant response rating, Johnsongrass [6, 15]: 45
- Plant response rating, Johnsongrass [6, 16]: 75
- Plant response rating, Morningglory ([7]; 16 g ai/ha, 0 to 100 scale): 55
- Morningglory plant response rating (0 to 100 scale) [7, 14]: 75
- Plant response rating, Morningglory [7, 15]: 60
- Plant response rating, Morningglory [7, 16]: 85
- Plant response rating, Cocklebur ([8]; 16 g ai/ha, 0 to 100 scale): 0
- Cocklebur plant response rating (0 to 100 scale) [8, 14]: 45
- Plant response rating, Cocklebur [8, 15]: 20
- Plant response rating, Cocklebur [8, 16]: 85
- Plant response rating, Velvetleaf ([9]; 16 g ai/ha, 0 to 100 scale): 75
- Velvetleaf plant response rating (0 to 100 scale) [9, 14]: 90
- Plant response rating, Velvetleaf [9, 15]: 80
- Plant response rating, Velvetleaf [9, 16]: 98
- Plant response rating, Goosegrass ([10]; 16 g ai/ha, 0 to 100 scale): 10
- Goosegrass plant response rating (0 to 100 scale) [10, 14]: 65
- Plant response rating, Goosegrass [10, 15]: 40
- Plant response rating, Goosegrass [10, 16]: 70
- Plant response rating, Surinam Grass ([11]; 16 g ai/ha, 0 to 100 scale): 25
- Surinam Grass plant response rating (0 to 100 scale) [11, 14]: 75
- Plant response rating, Surinam Grass [11, 15]: 75
- Plant response rating, Surinam Grass [11, 16]: 90
- Plant response rating, Bromegrass, Downy ([12]; 16 g ai/ha, 0 to 100 scale): 5
- Bromegrass, Downy plant response rating (0 to 100 scale) [12, 14]: 5
- Plant response rating, Bromegrass, Downy [12, 15]: 5
- Plant response rating, Bromegrass, Downy [12, 16]: 50
- Plant response rating, Oat, Wild (wild oat (Avena fatua); 16 g ai/ha, 0 to 100 scale): 5
- Oat, Wild plant response rating (0 to 100 scale) (wild oat (Avena fatua); [14]): 30
- Plant response rating, Oat, Wild (wild oat (Avena fatua); [15]): 5
- Plant response rating, Oat, Wild (wild oat (Avena fatua); [16]): 35
- Plant response rating, Foxtail, Green ([13]; 16 g ai/ha, 0 to 100 scale): 40
- Foxtail, Green plant response rating (0 to 100 scale) [13, 14]: 85
- Plant response rating, Foxtail, Green [13, 15]: 80
- Plant response rating, Foxtail, Green [13, 16]: 85

— patent publication US8952024B2, “Herbicidal pyrimidone derivatives” (E I du Pont de Nemours and Company, priority 2009, dated 2015)
